A short description of data set [1]: logP determination by HPLC (reversed-phase C 18), EEC Directive 79/831 Annex V.A8. The data set is classed as physicochemical. As for the experimental part:
The stated logP values were determined in accordance with EEC Directive 79/831 Annex V.A8 by HPLC (High Performance Liquid Chromatography), using a reversed-phase column (C 18). Temperature: 43° C.
In the acidic range, the determination was carried out at pH 2.3 using the mobile phases 0.1% aqueous phosphoric acid and acetonitrile; linear gradient from 10% acetonitrile to 90% acetonitrile.
In the neutral range, the determination was carried out at pH 7.5 using the mobile phases 0.01 molar aqueous phosphate buffer solution and acetonitrile; linear gradient from 10% acetonitrile to 90% acetonitrile.
Calibration was carried out using unbranched alkan-2-ones (having 3 to 16 carbon atoms) with known logP values (determination of the logP values by the retention times using linear interpolation between two successive alkanones).

Data set [2] concerns caterpillars of the army worm (Spodoptera frugiperda). Put plainly: Spodoptera frugiperda Test. The class given is in vivo. Particulars: cabbage leaves dipped. As for the experimental part: Spodoptera frugiperda Test
• Solvent: 30 parts by weight of dimethylformamide. • Emulsifier: 1 part by weight of alkylaryl polyglycol ether
To produce a suitable preparation of active compound, 1 part by weight of active compound is mixed with the stated amount of solvent and emulsifier, and the concentrate is diluted with emulsifier-containing water to the desired concentration.
Cabbage leaves (Brassica oleracea) are treated by being dipped into the preparation of active compound of the desired concentration and are populated with caterpillars of the army worm (Spodoptera frugiperda) while the leaves are still moist.
After the desired period of time, the kill in % is determined. 100% means that all caterpillars have been killed; 0% means that none of the caterpillars have been killed.

For data set [3], the system named is larvae of the mustard beetle (Phaedon cochleariae). Put plainly: Phaedon Larvae Test. The class given is in vivo. To be noted: 1000 ppm, cabbage leaves dipped. As for the experimental part:
Phaedon Larvae Test • Solvent: 30 parts by weight of dimethylformamide • Emulsifier: 1 part by weight of alkylaryl polyglycol ether To produce a suitable preparation of active compound, 1 part by weight of active compound is mixed with the stated amount of solvent and emulsifier, and the concentrate is diluted with emulsifier-containing water to the desired concentration. Cabbage leaves (Brassica oleracea) are treated by being dipped into the preparation of active compound of the desired concentration and are populated with larvae of the mustard beetle (Phaedon cochleariae) while the leaves are still moist.

Setting [4] is: reversed-phase C18 HPLC column, pH 2.3, HPLC, 0.1% aqueous phosphoric acid/acetonitrile, 43° C., read-out: log P (pH 2.3).
Setting [5] is: pH 2.3, HPLC, 0.1% aqueous phosphoric acid/acetonitrile, 43° C., read-out: log P (pH 2.3).

Read-outs that look alike come from different tables or passages of the source.

Turning to `Cc1ccsc1C(CCC(=O)c1c(F)cccc1F)NC(=O)OC(C)(C)C` (centres unmarked) [II-4], the chromatographic logP in data set [1] (setting [4]) came out at 4.27.

Consider `Fc1cccc(F)c1C1=NC(c2ccc(-c3cccc(OC(F)(F)F)c3)s2)CC1` (centres unmarked) [drawing 92], for which the “Kill rate in % after 7 d” value in data set [2] (1000 ppm) was found to be 100%.

On to `CC(C)(C)OC(=O)NC(CCC(=O)c1c(F)cccc1F)c1ccc(Br)s1` (centres unmarked) [II-1, tert-butyl 1-(5-bromo-2-thienyl)-4-(2,6-difluorophenyl)-4-oxobutylcarbamate], for which the chromatographic logP in data set [1] (setting [4]) is 4.29.

Consider `O=C(CCC(Cl)c1ccc(-c2ccc(OC(F)(F)F)cc2)nc1)c1c(F)cccc1F` (centres unmarked) [XV-3, 4-chloro-1-(2,6-difluorophenyl)4-{6-[4-(trifluoromethoxy)phenyl]-3-pyridinyl}-1-butanone], for which, in data set [1] (setting [4]), the chromatographic logP was found to be 4.88.

Consider `Fc1cccc(F)c1C1=NC(c2ccc(-c3cccc(OC(F)(F)F)c3)s2)CC1` (centres unmarked) [Example 12, 5-(2,6-difluorophenyl)-2-{5-[3-(trifluoromethoxy)phenyl]-2-thienyl}-3,4-dihydro-2H-pyrrole], for which the chromatographic logP in data set [1] (setting [4]) came out at 4.84.

In the case of `Fc1cccc(F)c1C1=NC(c2ccc(-c3ccc(OC(F)(F)F)cc3)s2)CC1` (centres unmarked) [Example 11, 5-(2,6-difluorophenyl)-2-{5-[4-(trifluoromethoxy)phenyl]-2-thienyl}-3,4-dihydro-2H-pyrrole], the chromatographic logP in data set [1] (setting [4]) amounted to 5.16.

In the case of `Fc1cccc(F)c1C1=NC(c2cccs2)CC1` (centres unmarked) [Example 2], the chromatographic logP in data set [1] (setting [4]) is 1.95.

As to `O=C1CCC(c2cccs2)N1` (centres unmarked) [XI-2], in data set [1] (setting [4]), the chromatographic logP worked out at 1.03.

Consider `Fc1cccc(F)c1C1=NC(c2cc(Br)cs2)CC1` (centres unmarked) [Example 8, 2-(4-bromo-2-thienyl)-5-(2,6-difluorophenyl)-3,4-dihydro-2H-pyrrole], for which the chromatographic logP in data set [1] (setting [4]) was 3.41.

In the case of `Cc1ccsc1C1CCC(=O)N1` (centres unmarked) [XI-4], in data set [1] (setting [4]), the chromatographic logP stood at 1.33.

On to `Fc1cccc(F)c1C1=NC(c2ccc(Br)s2)CC1` (centres unmarked) [Example 1, 2-(5-bromo-2-thienyl)-5-(2,6-difluorophenyl)-3,4-dihydro-2H-pyrrole], for which the chromatographic logP in data set [1] (setting [4]) came out at 3.45.

In the case of `Fc1cccc(F)c1C1=NC(c2sccc2Cl)CC1` (centres unmarked) [Example 3], in data set [1] (setting [4]), the chromatographic logP came out at 3.34.

As to `O=C1CCC(c2sccc2Cl)N1` (centres unmarked) [XI-3], the chromatographic logP in data set [1] (setting [4]) turned out to be 1.41.

On to `Fc1cccc(F)c1C1=NC(c2cc(-c3ccc(OC(F)(F)F)cc3)cs2)CC1` (centres unmarked) [drawing 89], for which, in data set [3], the “Kill rate in % after 7 d” value came out at 100%.

With `Fc1cccc(F)c1C1=NC(c2cc(-c3cccc(OC(F)(F)F)c3)cs2)CC1` (centres unmarked) [Example 13, 5-(2.6-difluorophenyl)-2-{4-[3-(trifluoromethoxy)phenyl]-2-thienyl}-3,4-dihydro-2H-pyrrole], the chromatographic logP in data set [1] (setting [4]) came out at 4.08.

In the case of `Fc1cccc(F)c1C1=NC(c2cc3sc(-c4ccc(OC(F)(F)F)cc4)cc3s2)CC1` (centres unmarked) [drawing 91], the “Kill rate in % after 7 d” value in data set [2] (500 ppm) is given as 100%.

With `O=C(/C=C/c1cc(Br)cs1)c1c(F)cccc1F` [XVIII-1, 3-(4-bromo-2-thienyl)-1-(2,6-difluorophenyl)-2-propen-1-one], in data set [1] (setting [4]), the chromatographic logP is 3.78.

With `CC(C)(C)OC(=O)N1C(=O)CCC1c1cc2ccccc2s1` (centres unmarked) [IX-5], the chromatographic logP in data set [1] (setting [4]) turned out to be 3.03.

As to `[N-]=[N+]=NC(CCC(=O)c1c(F)cccc1F)c1ccc(Cl)nc1` (centres unmarked) [III-2, 4-azido-4-(6-chloro-3-pyridinyl)-1-(2,6-difluorophenyl)-1-butanone], the chromatographic logP in data set [1] (setting [4]) was 3.33.

As for `O=C1CCC(c2ccc(Br)s2)N1` (centres unmarked) [XI-1, 5-(5-bromo-2-thienyl)-2-pyrrolidinone], in data set [1] (setting [4]), the chromatographic logP was found to be 1.62.

As for `CC(C)(C)OC(=O)NC(CCC(=O)c1c(F)cccc1F)c1cc2ccccc2s1` (centres unmarked) [II-5], the chromatographic logP in data set [1] (setting [4]) stood at 4.2.

With `Fc1cccc(F)c1C1=NC(c2ccc(Cl)nc2)CC1` (centres unmarked) [drawing 96], the “Kill rate in % after 7 d” value in data set [2] (500 ppm) was found to be 100%.

With `Cc1ccsc1C1CCC(c2c(F)cccc2F)=N1` (centres unmarked) [drawing 87], in data set [3], the “Kill rate in % after 7 d” value was found to be 100%.

As for `CC(C)(C)OC(=O)N1C(=O)CCC1c1ccc(Br)s1` (centres unmarked) [IX-1, tert-butyl 2-(5-bromo-2-thienyl)-5-oxo-1-pyrrolidinecarboxylate], in data set [1] (setting [4]), the chromatographic logP was 3.03.

Take `CC(C)(C)OC(=O)N1C(=O)CCC1c1cccs1` (centres unmarked) [IX-2]: in data set [1] (setting [4]), the chromatographic logP was determined as 2.39.

`O=C1CCC(c2cc3ccccc3s2)N1` (centres unmarked) [XI-5]: in data set [1] (setting [4]), the chromatographic logP was 1.73.

For `Fc1cccc(F)c1C1=NC(c2cc(Br)cs2)CC1` (centres unmarked) [drawing 93], in data set [2] (1000 ppm), the “Kill rate in % after 7 d” value amounted to 100%.

On to `Cc1ccsc1C1CCC(=O)N1C(=O)OC(C)(C)C` (centres unmarked) [IX-4], for which, in data set [1] (setting [4]), the chromatographic logP is 2.65.

As to `Cc1ccsc1C1CCC(c2c(F)cccc2F)=N1` (centres unmarked) [Example 4], the chromatographic logP in data set [1] (setting [4]) was found to be 2.34.

In the case of `O=C(/C=C/c1ccc(Cl)nc1)c1c(F)cccc1F` [XVIII-2, 3-(6-chloro-3-pyridinyl)-1-(2,6-difluorophenyl)-2-propen-1-one], the chromatographic logP in data set [1] (setting [4]) stood at 2.87.

Take `Fc1cccc(F)c1C1=NC(c2cc(-c3cccc(OC(F)(F)F)c3)cs2)CC1` (centres unmarked) [drawing 94]: the “Kill rate in % after 7 d” value in data set [2] (1000 ppm) was 100%.

On to `O=C(c1c(F)cccc1F)C1CC1c1ccc(-c2ccc(OC(F)(F)F)cc2)nc1` (centres unmarked) [XVII-3, (2,6-difluorophenyl)(2-{6-[4-(trifluoromethoxy)phenyl]-3-pyridinyl}cyclopropyl)methanone], for which, in data set [1] (setting [4]), the chromatographic logP is 4.4.

On to `Fc1cccc(F)c1C1=NC(c2ccc(Cl)nc2)CC1` (centres unmarked) [Example 9, 2-(6-chloro-3-pyridinyl)-5-(2,6-difluorophenyl)-3,4-dihydro-2H-pyrrole], for which, in data set [1] (pH 2.3), the chromatographic logP is 1.93.

As to `CC(C)(C)OC(=O)N1C(=O)CCC1c1sccc1Cl` (centres unmarked) [IX-3], in data set [1] (reversed-phase C18 HPLC column, pH 7.5, HPLC, 0.01 molar aqueous phosphate buffer/acetonitrile, 43° C., read-out: log P (pH 7.5)), the chromatographic logP amounted to 2.77.

Turning to `O=C(CCC(Cl)c1ccc(Cl)nc1)c1c(F)cccc1F` (centres unmarked) [XV-2, 4-(6-chloro-3-pyridinyl)-4-chloro-1-(2,6-difluorophenyl)-1-butanone], the chromatographic logP in data set [1] (setting [4]) came out at 3.37.

On to `Fc1cccc(F)c1C1=NC(c2cc3ccccc3s2)CC1` (centres unmarked) [Example 5], for which the chromatographic logP in data set [1] (setting [4]) is 3.11.

In the case of `CC(C)(C)OC(=O)NC(CCC(=O)c1c(F)cccc1F)c1sccc1Cl` (centres unmarked) [II-3], in data set [1] (setting [5]), the chromatographic logP was determined as 4.28.

As for `Fc1cccc(F)c1C1=NC(c2ccc(-c3ccc(OC(F)(F)F)cc3)nc2)CC1` (centres unmarked) [Example 10, 5-[5-(2,6-difluorophenyl)-3,4-dihydro-2H-pyrrol-2-yl]-2-[4-(trifluoromethoxy)phenyl]pyridine], the chromatographic logP in data set [1] (setting [4]) stood at 3.5.

On to `[N-]=[N+]=NC(CCC(=O)c1c(F)cccc1F)c1ccc(-c2ccc(OC(F)(F)F)cc2)nc1` (centres unmarked) [III-3, 4-azido-1-(2,6-difluorophenyl)-4-{6-[4-(trifluoromethoxy)phenyl]-3-pyridinyl}-1-butanone], for which the chromatographic logP in data set [1] (setting [4]) turned out to be 4.78.

On to `CC(C)(C)OC(=O)NC(CCC(=O)c1c(F)cccc1F)c1cccs1` (centres unmarked) [II-2], for which the chromatographic logP in data set [1] (setting [5]) was 4.48.

On to `Fc1cccc(F)c1C1=NC(c2ccc(-c3cccc(OC(F)(F)F)c3)s2)CC1` (centres unmarked) [drawing 88], for which, in data set [3], the “Kill rate in % after 7 d” value is listed as 100%.

For `O=C(c1c(F)cccc1F)C1CC1c1cc(Br)cs1` (centres unmarked) [XVII-1, [2-(4-bromo-2-thienyl)cyclopropyl](2,6-difluorophenyl)methanone], the chromatographic logP in data set [1] (setting [4]) stood at 4.14.

As to `Fc1cccc(F)c1C1=NC(c2cc(-c3ccc(OC(F)(F)F)cc3)cs2)CC1` (centres unmarked) [Example 14, 5-(2,6-difluorophenyl)-2-{4-[4-(trifluoromethoxy)phenyl]-2-thienyl}-3,4-dihydro-2H-pyrrole], the chromatographic logP in data set [1] (setting [4]) worked out at 4.66.

For `O=C(c1c(F)cccc1F)C1CC1c1ccc(Cl)nc1` (centres unmarked) [XVII-2, [2-(6-chloro-3-pyridinyl)cyclopropyl](2,6-difluorophenyl)methanone], the chromatographic logP in data set [1] (setting [4]) turned out to be 2.92.

With `[N-]=[N+]=NC(CCC(=O)c1c(F)cccc1F)c1cc(Br)cs1` (centres unmarked) [III-1, 4-azido-4-(4-bromo-2-thienyl)-1-(2,6-difluorophenyl)-1-butanone], in data set [1] (setting [4]), the chromatographic logP stood at 3.

With `Fc1cccc(F)c1C1=NC(c2cc(-c3ccc(OC(F)(F)F)cc3)cs2)CC1` (centres unmarked) [drawing 95], the “Kill rate in % after 7 d” value in data set [2] (1000 ppm) came out at 100%.

As to `O=C(CCC(Cl)c1cc(Br)cs1)c1c(F)cccc1F` (centres unmarked) [XV-1, 4-(4-bromo-2-thienyl)4-chloro-1-(2,6-difluorophenyl)-1-butanone], in data set [1] (setting [4]), the chromatographic logP was found to be 3.

For the origin of these results see US7186722B2, “2-heteroaryl-3,4-dihydro-2h-pyrrole derivatives and the use thereof as pesticides” (Bayer Cropscience AG, priority 2001, dated 2007).
